Tests used:
TNKS1 = biological target: T1, TNKS1 (Homo sapiens, UniProt O95271); assay: Modified TNKS1 Assay 2 (auto-parsylation, [3H]-NAD+ SPA); type: biochemical; settings: 6 nM TNKS1, 96 well
T1 sequence (O95271 1-1327): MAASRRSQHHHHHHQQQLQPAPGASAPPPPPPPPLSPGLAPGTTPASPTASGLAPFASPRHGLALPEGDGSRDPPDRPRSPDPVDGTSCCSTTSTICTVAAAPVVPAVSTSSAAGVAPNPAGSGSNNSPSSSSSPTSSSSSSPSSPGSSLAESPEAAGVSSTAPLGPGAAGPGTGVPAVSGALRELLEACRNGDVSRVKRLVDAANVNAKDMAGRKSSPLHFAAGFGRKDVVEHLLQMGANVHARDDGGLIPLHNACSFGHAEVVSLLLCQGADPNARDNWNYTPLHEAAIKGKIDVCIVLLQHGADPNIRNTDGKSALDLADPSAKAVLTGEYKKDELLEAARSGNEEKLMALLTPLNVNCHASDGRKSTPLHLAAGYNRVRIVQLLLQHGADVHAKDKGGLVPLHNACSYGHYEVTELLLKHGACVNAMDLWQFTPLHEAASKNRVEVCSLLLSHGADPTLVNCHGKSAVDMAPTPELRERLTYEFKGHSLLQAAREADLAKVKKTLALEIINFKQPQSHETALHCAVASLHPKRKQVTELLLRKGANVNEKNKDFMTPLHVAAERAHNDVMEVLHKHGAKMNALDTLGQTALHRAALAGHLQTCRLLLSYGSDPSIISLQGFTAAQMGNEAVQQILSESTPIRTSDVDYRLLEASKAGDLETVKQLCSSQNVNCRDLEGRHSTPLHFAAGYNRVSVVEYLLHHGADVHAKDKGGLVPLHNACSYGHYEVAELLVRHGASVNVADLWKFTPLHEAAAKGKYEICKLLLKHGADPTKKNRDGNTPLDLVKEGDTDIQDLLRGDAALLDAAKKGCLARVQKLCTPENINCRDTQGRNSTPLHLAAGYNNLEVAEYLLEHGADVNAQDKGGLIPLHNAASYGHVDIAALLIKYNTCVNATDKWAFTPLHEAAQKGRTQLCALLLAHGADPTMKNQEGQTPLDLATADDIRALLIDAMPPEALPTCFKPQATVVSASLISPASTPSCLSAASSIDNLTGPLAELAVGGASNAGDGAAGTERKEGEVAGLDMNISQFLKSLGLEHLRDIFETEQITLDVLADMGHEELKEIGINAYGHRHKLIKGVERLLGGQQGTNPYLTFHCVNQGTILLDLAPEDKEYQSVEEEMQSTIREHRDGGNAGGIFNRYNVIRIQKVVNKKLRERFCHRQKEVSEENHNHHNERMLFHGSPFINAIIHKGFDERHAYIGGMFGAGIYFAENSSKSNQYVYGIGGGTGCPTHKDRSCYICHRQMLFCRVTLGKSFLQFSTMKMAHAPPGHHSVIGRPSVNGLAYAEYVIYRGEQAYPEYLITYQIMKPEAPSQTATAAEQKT

[1] = test system: HEK293 FOP control reporter cell line; assay: HEK293 FOP Assay (FOP control vector luciferase reporter); type: cell-based; settings: Homo sapiens
How it was run: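 Compound series 50 μM to 15 nM, 3.16-fold steps, were diluted in CAFTY buffer (pH 7.4, 2 mM Ca2+, 0.01% BSA) and tested alongside the TOP reporter line. Human Wnt-3a was added at 2500–5 ng/ml in two-fold steps. The control HEK293 line stably holds an FOP vector whose TCF elements are randomized and non-functional.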

[2] = HEK293 FOP control reporter cells, 16 hours, luciferase, dilution series from 50 μM
[3] = HEK293 FOP control reporter cell line, 16 hours incubation, compound dilution series 50 μM to 15 nM

Row | Structure (SMILES) | IC50 (TNKS1) | IC50 [1, 2] | IC50 [1, 3]
1 | O=C(Nc1ccc(NC(=O)c2[nH]cnc2C(=O)N2CCOCC2)cc1)c1ccc(F)cc1Cl [Example 29, N-{4-[(2-chloro-4-fluorobenzoyl)amino]phenyl}-5-(morpholin-4-ylcarbonyl)-1H-imidazole-4-carboxamide] | 2.1 µM | ≥ 50 µM | –
2 | O=C(Nc1ccc(NC(=O)c2[nH]cnc2C(=O)NCCN2CCCCC2)cc1)c1ccc(F)cc1Cl [Example 32, N^4-{4-[(2-chloro-4-fluorobenzoyl)amino]phenyl}-N^5-[2-(piperidin-1-yl)ethyl]-1H-imidazole-4,5-dicarboxamide] | 0.009 µM | 42 µM | 30 µM
3 | CNC(=O)c1nc[nH]c1C(=O)Nc1ccc(NC(=O)c2c(Cl)cccc2C(F)(F)F)cc1 [Example 36, N^5-(4-{[2-chloro-6-(trifluoromethyl)benzoyl]amino}phenyl)-N^4-methyl-1H-imidazole-4,5-dicarboxamide] | > 10 µM | ≥ 50 µM | –
4 | CCc1ccccc1C(=O)Nc1ccc(NC(=O)c2[nH]cnc2C(=O)NC)cc1 [Example 39, N^5-{4-[(2-ethylbenzoyl)amino]phenyl}-N^4-methyl-1H-imidazole-4,5-dicarboxamide] | 2.7 µM | 5.5 µM | 5.5 µM
5 | CN1CC2(C1)CN(C(=O)c1nc[nH]c1C(=O)Nc1ccc(NC(=O)c3ccc(F)cc3Cl)cc1)C2 [Example 46, N-{4-[(2-chloro-4-fluorobenzoyl)amino]phenyl}-4-[(6-methyl-2,6-diazaspiro[3.3]hept-2-yl)carbonyl]-1H-imidazole-5-carboxamide] | 0.68 µM | – | 12 µM
6 | O=C(Nc1ccc(NC(=O)c2[nH]cnc2C(=O)NCCC2CCCC2)cc1)c1cc(F)c(F)cc1Cl [Example 48, N^5-{4-[(2-chloro-4,5-difluorobenzoyl)amino]phenyl}-N^4-(2-cyclopentylethyl)-1H-imidazole-4,5-dicarboxamide] | > 10 µM | – | 17 µM
7 | CNC(=O)c1nc[nH]c1C(=O)Nc1ccc(NC(=O)c2ccc(F)cc2Br)cc1 [Example 56, N^5-{4-[(2-bromo-4-fluorobenzoyl)amino]phenyl}-N^4-methyl-1H-imidazole-4,5-dicarboxamide] | 0.53 µM | – | 10 µM
8 | CNC(=O)c1nc[nH]c1C(=O)Nc1ccc(NC(=O)c2ccccc2OC)cc1 [Example 60, N^5-{4-[(2-methoxybenzoyl)amino]phenyl}-N^4-methyl-1H-imidazole-4,5-dicarboxamide] | > 10 µM | – | 9.75 µM
9 | O=C(Nc1ccc(NC(=O)c2[nH]cnc2C(=O)NCCN2CCCCC2)cc1)c1ccc(F)cc1I [Example 62, N^5-{4-[(4-fluoro-2-iodobenzoyl)amino]phenyl}-N^4-[2-(piperidin-1-yl)ethyl]-1H-imidazole-4,5-dicarboxamide] | 0.84 µM | – | 24 µM
10 | CCNC(=O)c1nc[nH]c1C(=O)Nc1ccc(NC(=O)c2cnccc2Cl)cc1 [Example 263, N^5-(4-{[(4-chloropyridin-3-yl)carbonyl]amino}phenyl)-N^4-ethyl-1H-imidazole-4,5-dicarboxamide] | 0.3 µM | – | 27.5 µM
11 | CCNC(=O)c1nc[nH]c1C(=O)Nc1ccc(NC(=O)c2cc(OC)ccc2Cl)cc1 [Example 264, N^5-{4-[(2-chloro-5-methoxybenzoyl)amino]phenyl}-N^4-ethyl-1H-imidazole-4,5-dicarboxamide] | 0.09 µM | – | 16 µM
12 | CN1CCCC(CNC(=O)c2[nH]cnc2C(=O)Nc2ccc(NC(=O)c3ccc(F)cc3Cl)cc2)C1 (centres unmarked) [Example 298, N^4-{4-[(2-chloro-4-fluorobenzoyl)amino]phenyl}-N^5-[(1-methylpiperidin-3-yl)methyl]-1H-imidazole-4,5-dicarboxamide] | 0.04 µM | – | 17 µM
13 | CNC(=O)c1nc[nH]c1C(=O)Nc1ccc(NC(=O)c2cc(Cl)ccc2Cl)cc1 [Example 309, N^5-{4-[(2,5-dichlorobenzoyl)amino]phenyl}-N^4-methyl-1H-imidazole-4,5-dicarboxamide] | 0.41 µM | – | 38 µM
14 | CNC(=O)c1nc[nH]c1C(=O)Nc1ccc(NC(=O)c2cc(Br)ccc2Cl)cc1 [Example 313, N^5-{4-[(5-bromo-2-chlorobenzoyl)amino]phenyl}-N^4-methyl-1H-imidazole-4,5-dicarboxamide] | 0.42 µM | – | 25 µM
15 | CNC(=O)c1nc[nH]c1C(=O)Nc1ccc(NC(=O)c2ccc(Cl)cc2F)cc1 [Example 333, N^5-{4-[(4-chloro-2-fluorobenzoyl)amino]phenyl}-N^4-methyl-1H-imidazole-4,5-dicarboxamide] | 0.96 µM | – | 40 µM
16 | CC(C)N(CCNC(=O)c1nc[nH]c1C(=O)Nc1ccc(NC(=O)c2ccc(F)cc2Cl)cc1)C(C)C [Example 389, N^5-{4-[(2-chloro-4-fluorobenzoyl)amino]phenyl}-N^4-{2-[di(propan-2-yl)amino]ethyl}-1H-imidazole-4,5-dicarboxamide] | 0.15 µM | – | 11 µM

More lines, in order of falling IC50 (TNKS1), values ahead:

Row | IC50 (TNKS1) | Structure (SMILES) | IC50 [1, 2] | IC50 [1, 3]
17 | 0.02 µM | Cc1nc(C(=O)Nc2ccc(NC(=O)c3ccc(F)cc3Cl)cc2)c(C(=O)NCCN(C)C)[nH]1 [Example 66, N^4-{4-[(2-chloro-4-fluorobenzoyl)amino]phenyl}-N^5-[2-(dimethylamino)ethyl]-2-methyl-1H-imidazole-4,5-dicarboxamide] | – | 6.2 µM
18 | 0.02 µM | O=C(Nc1ccc(NC(=O)c2nc[nH]c2C(=O)NCCN2CCC(F)(F)C2)cc1)c1ccc(F)cc1Cl [Example 279, N^4-{4-[(2-chloro-4-fluorobenzoyl)amino]phenyl}-N^5-[2-(3,3-difluoropyrrolidin-1-yl)ethyl]-1H-imidazole-4,5-dicarboxamide] | – | 12 µM
19 | 0.01 µM | CN(C)CCNC(=O)c1nc[nH]c1C(=O)Nc1ccc(NC(=O)c2ccc(F)cc2Cl)cc1 [Example 22, N^4-{4-[(2-chloro-4-fluorobenzoyl)amino]phenyl}-N^5-[2-(dimethylamino)ethyl]-1H-imidazole-4,5-dicarboxamide] | ≥ 50 µM | –
20 | 0.01 µM | CN(C)CCNC(=O)c1nc[nH]c1C(=O)Nc1ccc(NC(=O)c2ccc(F)cc2Cl)c(F)c1 [Example 73, N^5-{4-[(2-chloro-4-fluorobenzoyl)amino]-3-fluorophenyl}-N^4-[2-(dimethylamino)ethyl]-1H-imidazole-4,5-dicarboxamide] | – | 33 µM
21 | 0.008 µM | O=C(Nc1ccc(NC(=O)c2ocnc2C(=O)NCCN2CCCCC2)cc1)c1ccc(F)cc1Cl [Example 303, N^5-{4-[(2-chloro-4-fluorobenzoyl)amino]phenyl}-N^4-[2-(piperidin-1-yl)ethyl]-1,3-oxazole-4,5-dicarboxamide] | – | 8.1 µM
22 | 0.007 µM | C[C@@H]1CCCCN1CCNC(=O)c1[nH]cnc1C(=O)Nc1ccc(NC(=O)c2ccc(F)cc2Cl)cc1 [Example 267, N^4-{4-[(2-chloro-4-fluorobenzoyl)amino]phenyl}-N^5-{2-[(2R)-2-methylpiperidin-1-yl]ethyl}-1H-imidazole-4,5-dicarboxamide] | – | 20 µM
23 | 0.005 µM | C[C@@H]1CCCN(CCNC(=O)c2[nH]cnc2C(=O)Nc2ccc(NC(=O)c3ccc(F)cc3Cl)cc2)C1 [Example 278, N^4-{4-[(2-chloro-4-fluorobenzoyl)amino]phenyl}-N^5-{2-[(3R)-3-methylpiperidin-1-yl]ethyl}-1H-imidazole-4,5-dicarboxamide] | – | 25 µM
24 | 0.004 µM | Cc1nc(C(=O)Nc2ccc(NC(=O)c3ccc(F)cc3Cl)cc2)c(C(=O)NCCN2CCCCC2)[nH]1 [Example 67, N^4-{4-[(2-chloro-4-fluorobenzoyl)amino]phenyl}-2-methyl-N^5-[2-(piperidin-1-yl)ethyl]-1H-imidazole-4,5-dicarboxamide] | – | 13 µM

— US9884063B2, “Amido-substituted azole compounds” (Bayer Pharma Aktiengesellschaft, priority 2014, dated 2018)
